Experimental data taken from the supplement of paper PMC13380429.

Columns and labels:
[1] = test system: A549-ACE2 infected with SARS-CoV-2; test: cell count relative to DMSO; higher = less toxic; settings: 24 h
Caco-2 [2] = test: cell viability relative to DMSO; higher = less toxic; settings: 72 h
Calu-3 [3] = test: as above; settings: 72 h
HepG2 [4] = test: as above; settings: 72 h
U2OS [5] = test: as above; settings: 72 h
Vero E6 [6] = test: as above; settings: 72 h
[7] = test system: A549-ACE2 infected with SARS-CoV-2; test: SARS-CoV-2 infection rate relative to DMSO; higher = more infection; settings: 24 h
A549-ACE2 [8] = test: drug-induced phospholipidosis relative to tamoxifen; higher = more phospholipidosis
[9] = test system: A549-ACE2 infected with SARS-CoV-2; test: morphology score (similarity to uninfected cells); higher = more like uninfected cells; settings: 24 h
Calu-3 [10] = test: relative viability EC50 (midpoint between 100% and the lowest measured viability); higher = less toxic; settings: 72 h
HepG2 [11] = test: as above; settings: 72 h
Vero E6 [12] = test: as above; settings: 72 h
Caco-2 [13] = test: drug sensitivity score (DSS) for viability; higher = more toxic; extreme values may be limits of the assay; settings: 72 h
Calu-3 [14] = test: as above; settings: 72 h
HepG2 [15] = test: as above; settings: 72 h
U2OS [16] = test: as above; settings: 72 h
Vero E6 [17] = test: as above; settings: 72 h
A549-ACE2 [18] = test: phospholipidosis EC50; higher = less potent phospholipidosis inducer
U2OS [19] = test: relative viability EC50 (midpoint between 100% and the lowest measured viability); higher = less toxic; settings: 72 h

Cc1csc(-c2nnc(Nc3ccc(Oc4ncccc4-c4ccnc(N)n4)cc3)c3ccccc23)c1 [AMG900]
Settings	SARS-CoV-2 infection rate, [7] [%]	cell count, [1] [%]	cell viability, Caco-2 [2] [%]	cell viability, Calu-3 [3] [%]	cell viability, HepG2 [4] [%]	cell viability, U2OS [5] [%]	cell viability, Vero E6 [6] [%]	morphology score, [9]
1 nM	–	–	94.6	104	101	93.9	100	–
10 nM	–	–	90.5	90.7	73.4	93.8	82.2	–
0.1 µM	97	77	–	–	–	–	–	0.14
100 nM	–	–	96.1	92	76.6	85.5	80.4	–
0.3 µM	93	73	–	–	–	–	–	0.2
1 µM	105	74	–	–	–	–	–	-0.05
1000 nM	–	–	77.3	77.8	53.6	82.3	81.7	–
3 µM	104	75	–	–	–	–	–	-0.08
10000 nM	–	–	65.5	81.4	2.2	68.2	75.8	–

drug-induced phospholipidosis [%], A549-ACE2 [8]
Settings	0.3 µM	0.833333 µM	3.33333 µM	6.66667 µM	10 µM	30 µM
24 h	13.3	10.1	22.8	35.6	44.4	33.3
48 h	–	–	27.1	–	34.6	7.09

Settings	drug sensitivity score	relative viability EC50 [µM]
Caco-2 [13]	4.2	–
Calu-3 [10]	–	> 10
Calu-3 [14]	3.3	–
HepG2 [11]	–	0.54
HepG2 [15]	13.9	–
U2OS [16]	4.3	–
Vero E6 [12]	–	> 10
Vero E6 [17]	8.5	–

Cn1c(NC[C@@H](N)Cc2ccccc2)nc(-c2ccncc2)c(-c2ccc3ccccc3c2)c1=O [AMG-548]
Settings	SARS-CoV-2 infection rate [%]	cell count [%]	cell viability [%]	morphology score	phospholipidosis EC50 [µM]
A549-ACE2 [18], 24 h	–	–	–	–	8.48
A549-ACE2 [18], 48 h	–	–	–	–	9.02
A549-ACE2 [18], 72 h	–	–	–	–	9.93
Caco-2 [2], 1 nM	–	–	96.8	–	–
Caco-2 [2], 10 nM	–	–	87.9	–	–
Caco-2 [2], 100 nM	–	–	102	–	–
Caco-2 [2], 1000 nM	–	–	89.5	–	–
Caco-2 [2], 10000 nM	–	–	69.9	–	–
HepG2 [4], 1 nM	–	–	106	–	–
HepG2 [4], 10 nM	–	–	108	–	–
HepG2 [4], 100 nM	–	–	101	–	–
HepG2 [4], 1000 nM	–	–	104	–	–
HepG2 [4], 10000 nM	–	–	72.4	–	–
U2OS [5], 1 nM	–	–	101	–	–
U2OS [5], 10 nM	–	–	94.2	–	–
U2OS [5], 100 nM	–	–	93.1	–	–
U2OS [5], 1000 nM	–	–	85.3	–	–
U2OS [5], 10000 nM	–	–	76.3	–	–
Vero E6 [6], 1 nM	–	–	106	–	–
Vero E6 [6], 10 nM	–	–	104	–	–
Vero E6 [6], 100 nM	–	–	99.2	–	–
Vero E6 [6], 1000 nM	–	–	89	–	–
Vero E6 [6], 10000 nM	–	–	97.2	–	–
[1], 0.3 µM	–	93	–	–	–
[1], 3 µM	–	110	–	–	–
[1], 10 µM	–	123	–	–	–
[1], 30 µM	–	106	–	–	–
[7], 0.3 µM	99	–	–	–	–
[7], 3 µM	71	–	–	–	–
[7], 10 µM	27	–	–	–	–
[7], 30 µM	11	–	–	–	–
[9], 0.3 µM	–	–	–	-0.14	–
[9], 3 µM	–	–	–	0.22	–
[9], 10 µM	–	–	–	0.82	–
[9], 30 µM	–	–	–	0.53	–

drug-induced phospholipidosis [%], A549-ACE2 [8]
Settings	0.3 µM	0.833333 µM	3.33333 µM	6.66667 µM	10 µM	30 µM
24 h	-3.67	-2.85	6.77	44.3	80.5	129
48 h	-2.54	-2.01	5.31	39.9	73.3	125
72 h	-1.85	-0.623	7.44	37.6	80.8	151

Settings	drug sensitivity score	relative viability EC50 [µM]
Caco-2 [13]	2.8	–
HepG2 [15]	0.9	–
U2OS [16]	2.3	–
U2OS [19]	–	> 10
Vero E6 [12]	–	> 10
Vero E6 [17]	0.3	–
